Holding throughout (type): in vivo
Test [1] concerns Balb/c male mice. Description: Mice maximal swimming time measurement in an adjustable-current swimming pool (endurance-improving/anti-fatigue effect). To be noted: Test 1; for Maximal swimming time: flow rate 7 L/min. The method, then:
An endurance-improving/anti-fatigue effect was evaluated in accordance with the mice maximal swimming time measurement (Reference: Am. J. Physiol. Regul. Integr. Comp. Physiol., 288, 708-715 (2005)) in an adjustable-current swimming pool. The pool used for this test made of transparent acryl (90 cm long×45 cm wide×45 cm deep) was filled with water to the depth of 38 cm and maintained at 34° C. by a heater. The current in the pool was generated by circulating water with a pump (“C-P60H”, product of Hitachi, Ltd.). The flow rate was regulated by opening and closing of a valve of a water flow meter (product of Tokyo Flow Meter Kenkyujo) connected to the pump. The flow rate was monitored by a current meter (“SV-101-25S”, product of Sanko Seimitsu Kogyo). As a test animal, five-week-old Balb/c male mice (Charles River) were used. They were habituated by preliminary rearing for 1 week under a predetermined rearing environment (23±2° C., light period: from 7:00 am to 7:00 pm). For the next one week, training was performed three times a week in order to accustom the mice to swimming (swimming for 30 minutes at a flow rate of 5 L/min on Day 1, and for 30 minutes at a flow rate of 6 L/min on Day 3 and Day 5). […] To prevent a difference between groups in the maximal swimming time, mice were classified into two groups each consisting of 8 mice, that is, a test diet group and control diet group. During this term, maximal swimming time measurement (7 L/min) and training (6 L/min, 30 minutes) were each conducted once a week.

Test [2] relates to SAM-P1 male mice (senescence accelerated mice). Description: Total muscle weight (gastrocnemius, soleus, plantaris) per body weight. On the procedure: (§1) After preliminary individual rearing of 13-week-old SAM-P1 male mice (senescence accelerated mice) and SAM-R1 male mice (ordinarily aged mice) for 5 weeks, they were habituated to treadmill running and their maximal running time was measured. The measurement was started after the mice were kept sedentary in the treadmill to accustom them to the environment. The belt speed was started at 10 m/min. The mice were caused to run for 5 minutes on the belt having a speed of 10 m/min, 5 minutes at a speed of 15 m/min, 60 minutes at a speed of […], 60 minutes at a speed of 22 m/min, 60 minutes at a speed of 24 m/min, 60 minutes at a speed of 26 m/min and then at a speed of 28 m/min. […] To avoid a difference in the maximal running time between strains, the mice were divided into three groups, that is, SAM-R1 control group, SAM-P1 control group, and SAM-P1 resveratrol group (each group consisting of 5 to 8 mice). Each mouse was exercised at 15 m/min for 30 minutes three times a week during the period of experiment. The maximal running time of each group was measured after rearing for 8 weeks. In addition, as energy metabolism at rest, oxygen consumption of each group was measured by breath analysis after rearing for 9 weeks. For this analysis, “Oxymax system” (product of Columbus Instruments) equipped with 8 chambers was used. […] From their weights, total muscle weight was determined.

Test [3] has the same test system. The test can be described thus: Energy metabolism at rest: oxygen consumption by breath analysis (Oxymax system). On the procedure:
as §1

For test [4] the test system is unchanged. The test can be described thus: Maximum muscle strength of extensor digitorum longus muscle under electrical stimulation. An excerpt:
After the preliminary individual rearing of 13-week-old SAM-P1 male mice (senescence accelerated mice) and SAM-R1 male mice (ordinarily aged mice) for 5 weeks, they were habituated to treadmill running. Then, they were divided into SAM-R1 control group, SAM-P1 control group, SAM-P1 exercise group, SAM-P1 resveratrol group/exercise (each group consisting of 5 mice) They were reared for 13 weeks on a diet prepared in accordance with the formulation shown in Table 9. Exercise at 15 m/min was imposed to each mouse of the exercise group for 30 minutes three times a week during the period of experiment. After rearing for 13 weeks, the mice were sacrificed for dissection. Their extensor digitorum longus muscle was fixed to a transducer (“FORT100”, product of World Precision Instruments, Inc.) in a Krebs solution (aeration condition: 95% oxygen, 5% carbon dioxide) of 37° C. and then, electrically stimulated (at 140 Hz for 0.5 msec), whereby the maximum muscle strength was measured.

Test [5] shares this test system. Description: Maximal running time on treadmill (anti-aging effect, endurance). The method, then: as §1

For `Oc1ccc(C=Cc2cc(O)cc(O)c2)cc1` [Resveratrol, 3,4′,5-trihydroxy-stilbene], the Maximal swimming time in test [1] (after rearing for 10 weeks on diet with 0.2 mass % resveratrol, control diet 31.15 ± 2.57) was found to be 44.80 ± 4.56 min; in test [1] (before rearing (baseline), Balb/c male mice), 28.50 ± 1.75 min. For the same molecule, the “Maximal swimming time compared with control diet group (in words)” value in test [1] (after rearing for 10 weeks, 0.2 mass % resveratrol in diet) is “significantly extended the maximal swimming time”. Besides, in test [2] (after rearing for 10 weeks on feed with 0.2% resveratrol, SAM-P1 control 0.64 ± 0.02), the “Relative muscle weight (muscle weight per body weight)” value was 0.81 ± 0.07%. Also, the “Muscle weight compared with SAM-P1 control group (in words)” value in test [2] (after rearing for 10 weeks, 0.2% resveratrol in feed) was “significantly large compared with that of the SAM-P1 control group”. Further, in test [3] (after rearing for 9 weeks on feed with 0.2% resveratrol, SAM-P1 control 46.9 ± 1.3), the “Oxygen consumption (average for 24 hours)” value was determined as 57.1 ± 4.3 mL/min/kg. Moreover, in test [3] (after rearing for 9 weeks, 0.2% resveratrol in feed), the “Oxygen consumption compared with SAM-P1 control group (in words)” value was “significantly high compared with that of the SAM-P1 control group”. In addition, the “Maximum muscle strength of extensor digitorum longus muscle” value in test [4] (resveratrol (0.2% in feed) plus exercise, reared for 10 weeks per table title (13 weeks per text), SAM-P1 control 9.8 ± 0.3, SAM-P1 exercise 13.0 ± 1.8) turned out to be 15.0 ± 1.8 g. Besides, the “Maximum muscle strength compared with SAM-P1 control group (in words)” value in test [4] (resveratrol-containing feed (0.2%) plus exercise) is given as “significantly high”. The Maximal running time in test [5] (after rearing for 8 weeks on feed with 0.2% resveratrol, SAM-P1 control 100.0 ± 5.8) is 141.3 ± 19.7 min. Besides, in test [5] (after rearing for 8 weeks, 0.2% resveratrol in feed), the “Maximal running time compared with SAM-P1 control group (in words)” value is on record as “significantly long compared with that of the SAM-P1 control group”.

These data come from patent US20090162457A1, “RESVERATROL AND/OR GRAPE LEAF EXTRACT AS I. A. ENDURANCE IMPROVER, ANTI-AGING AGENT, MUSCLE STRENGTH IMPROVER” (KAO CORPORATION, priority 2005, published 2009).
